How the values were obtained:
[1] = test system: T47D cells; experiment: MTT cell viability assay, T47D cells; settings: Homo sapiens, read-out: in-vitro percent cell viability
Description: (§1) The in vitro cytotoxicities of the derivative A to various cancer and non-cancer cells across different molar concentrations (0.5 μM-50 μM) were performed. The cancer cells were chosen from various origins, such as breast cancer cells MCF-7 (primary carcinoma), T47D (ductal carcinoma), MDA-MB-468 (secondary, metastatic); cervical cancer cell Hela; lung cancer cell A549 (metastatic). […] In one set of experiments, the cells were treated at different concentrations of derivative A for 4 h, washed and kept in serum media for 6 days to observe cellular toxicity using MTT assay (FIGS. 1, 2, 4, 6A and 6B), except for one cell line where the assay was done after 4 days (FIG. 3). In another set of experiment, the cells were treated continuously for 48 h in presence of serum media and cellular toxicities were assayed promptly (FIG. 5).
(§2) Cells and Cell Culture. CHO (Chinese hamster ovary), COS-1 (African Green monkey kidney cells) HeLa (Human cervical carcinoma), MCF-7 (Human breast primary adenocarcinoma), T47D (Human breast ductal carcinoma), MDA-MB-468 (Human breast secondary adenocarcinoma), and A-549 (Human lung carcinoma) cell lines were procured from the National Centre for Cell Sciences (NCCS), Pune, India and were mycoplasma free. […] The cells were trypsinized, counted, subcultured in 96-well plates for viability studies. […]

[2] = test system: MCF-7 cells; experiment: MTT cell viability assay, MCF-7 cells; settings: Homo sapiens, MCF7, read-out: in-vitro percent cell viability
Description: as §1, §2

[3] = test system: MDA-MB-468 cells; experiment: MTT cell viability assay, MDA-MB-468 cells; settings: Homo sapiens, MDA-MB-468, read-out: in-vitro percent cell viability
Description: as §1, §2

[4] = test system: Hela cells; experiment: MTT cell viability assay, Hela cells; settings: Homo sapiens, read-out: in-vitro percent cell viability
Description: as §1, §2

Measured: viability at 50 µM

CCCCCCCC[N+](C)(CCCCCCCC)CCC[C@]1(O)CCC2C3CCc4cc(O)ccc4C3CC[C@@]21C (stereo partly drawn) [Derivative 1, 17α-[3-N,N-dioctyl(methyl)aminopropane]-17β-Estradiol]
2 to 10%: all assays above
